# In patent publication US9606124B2, “Methods of detecting and treating stem-cell containing solid tumors” (The Regents of The University of Michigan, priority 2008, dated 2017):
# Entries after “also recorded” stand apart in the source; their conditions may differ.
# Tests used:
# FAS-ligand mRNA = experiment: Quantitative RT-PCR of FAS-ligand mRNA in SUM159 cells; format: cell-based, human; conditions: repertaxin 100 nM, FAS agonist 500 ng/ml, docetaxel 10 nM, trihydrate
# Protocol: RNA extraction and qRT-PCR. After SUM159 cells were treated, total RNA was isolated using RNeasy Mini Kit (QIAGEN) and utilized for real-time quantitative RT-PCR (qRT-PCR) assays in a ABI PRISM® 7900HT sequence detection system.
# [1] = test system: SUM159 cell line and human breast cancer xenografts MC1, UM2, UM3; experiment: Tumor growth of breast cancer xenografts in the mammary fat pad; format: in vivo, NOD/SCID mice; conditions: repertaxin 15 mg/Kg s.c. twice a day 28 days, docetaxel 10 mg/Kg i.p. once a week, start at tumor size about 4 mm, trihydrate
# Protocol: For each sample, 50,000 cells were injected into the mammary fat pad of NOD-SCID mice which were monitored for tumor size. Injections were started when the tumor size was about 4 mm.
# (§1) Animal model. […] Cells from these tumors were transplanted orthotopically in the humanized cleared fat-pad of NOD/SCID mice, without cultivation in vitro. […] 50,000 cells from each xenotransplants were injected in the humanized fat pad of NOD/SCID mice and monitored the tumor growth. […] The animals were euthanized when the tumors were approximately 1.5 cm in the largest diameter, to avoid tumor necrosis and in compliance with regulations for use of vertebrate animal in research. A portion of each fat pad injected was fixed in formalin and embedded in paraffin for histological analysis. The rest of the tumor cells were re-implantated into secondary NOD/SCID mice. Serial dilutions of cells were utilized for the re-implantation with injection of 10,000, 1,000, and 100 cells for each treated tumor.
# [2] = test system: ALDEFLUOR-positive cells of SUM159, MC1, UM2, UM3 tumors; experiment: ALDEFLUOR assay on treated tumor xenografts; format: in vivo, NOD/SCID mice; conditions: residual tumors after four weeks of treatment; trihydrate
# Protocol: ALDEFLUOR assay. […] In order to eliminate cells of mouse origin from the xenotransplanted tumors, cell population was stained with an anti-H2Kd antibody (BD biosciences, 1/200, 20 min on ice) followed by staining with a secondary antibody labeled with phycoerythrin (PE) (Jackson labs, 1/250, 20 min on ice).
# as §1
# [3] = test system: cells from primary tumors SUM159, MC1, UM2, UM3; experiment: Re-implantation of cells from treated tumors into secondary mice; format: in vivo, NOD/SCID mice
# Protocol: as §1, with “Serial dilutions of cells were utilized for the re-implantation with injection of 10,000, 1,000, and 100 cells for each treated tumor.” left out
# [4] = test system: CD44+/CD24- cell population of MC1, UM2, UM3 xenografts; experiment: CD44+/CD24- cells in treated tumors (flow cytometry); design: species or system NOD/SCID mice; conditions: mouse, in vivo
# Protocol: as §1
# Flow cytometry analysis. […] CD95/FAS staining were performed utilizing an anti-CD95 labeled APC (1:20, BD biosciences). […] Fresh cells were stained with 1 μg/ml PI (Sigma) for 5 min for viability.
# FOXO3A = experiment: Immunohistochemistry of FOXO3A in xenotransplants; design: species or system NOD/SCID mice; conditions: mouse, in vivo
# Protocol: (§2) Immunostaining. For immunofluorescent staining, sorted CXCR1-positive cells were fixed with 95% methanol at −20° C. for 10 minutes. Cells were rehydrated in PBS and incubated with respective antibodies at room temperature for 1 hour. Primary antibodies used were P-FAK (1:50, Cell Signaling Technology), P-AKT (1:300, Cell Signaling Technology), and FOXO3a (1:250, Cell Signaling Technology). Slides were then washed and incubated 30 minutes with PE conjugated secondary antibodies (Jackson labs). The nuclei were counterstained with DAPI/antifade (Invitrogen) and coverslipped. […] Immunohistochemistry for the detection of ALDH1 (1:100, BD biosciences), P-FAK, P-AKT, FOXO3a expression was done on paraffin section (Ginestier et al. Am. J Pathol. 161:1223-1233, herein incorporated by reference in its entirety). Staining was done utilizing the Histostainplus kit (Zymed laboratories). Diaminobenzidine (DAB) or 3-amino-9-ethylcarbazole (AEC) was used as chromogen and sections were counterstained with hematoxylin.
# ALDH1 = experiment: Immunohistochemistry of ALDH1 in xenotransplants; format: in vivo, NOD/SCID mice; conditions: compared to untreated tumors
# Protocol: as §2
# [5] = test system: normal mammary epithelial cells; experiment: Mammosphere formation by normal mammary epithelial cells; format: cell-based, human; conditions: normal mammary epithelial cells in suspension, human recombinant IL-8
# [6] = test system: HCC1954, SUM159, MDA-MB-453; experiment: Tumorsphere formation of breast cell lines treated with IL8; format: cell-based; conditions: human recombinant IL8
# Protocol: Anchorage-independent culture. ALDEFLUOR-positive, -negative and unseparated cells from 184A1, SUM149 and SUM159 were plated as single cells in ultra-low attachment plates (Corning, Acton, Mass.) at low density (5000 viable cells/ml). Cells were grown in serum-free mammary epithelial basal medium (Cambrex Bio Science, Walkerville, Md.) for 3-7 days, as described (18). The capacity of cells to form spheres was quantified after treatment with different doses of IL8 (GenWay Biotech, San Diego, Calif.) added to the medium.
# [7] = test system: four breast cell lines cultured in adherent conditions; experiment: ALDEFLUOR-positive population of breast cell lines treated with IL8; format: cell-based; conditions: human recombinant IL8
# Protocol: ALDEFLUOR Assay and Separation of the ALDH-positive Population by FACS. ALDH activity was assessed in 33 BCLs representing the main molecular subtypes of human breast cancer. The ALDEFLUOR kit (StemCell technologies, Durham, N.C., USA) was used to isolate the population with high ALDH enzymatic activity (17). Cells obtained from subconfluent cell lines after trypsinization or from freshly dissociated xenografts were suspended in ALDEFLUOR assay buffer containing ALDH substrate (BAAA, 1 μmol/l per 1×10^6 cells) and incubated for 40 minutes at 37° C. In each experiment a sample of cells was stained under identical conditions with […] of diethylaminobenzaldehyde (DEAB), a specific ALDH inhibitor, as negative control. Flow cytometry sorting was conducted using a FACStarPLUS (Becton Dickinson). ALDEFLUOR fluorescence was excited at 488 nm and detected using standard fluorescein isothiocyanate (FITC) 530/30 band pass filter. For xenotransplanted tumors, incubation with an anti-H2Kd antibody (BD biosciences, 1/200, 20 min on ice) followed by a secondary antibody labeled with phycoerythrin (Jackson labs, 1/250, 20 min on ice) was used to eliminate cells of mouse origin. […] For both cell lines, sorted ALDEFLUOR-positive populations contained more than 98% of ALDEFLUOR-positive cells and no ALDEFLUOR-positive cells were detected in the ALDEFLUOR-negative population.
# [8] = test system: ALDEFLUOR-positive and -negative cells of HCC1954, MDA-MB-453, SUM159; experiment: Matrigel invasion assay with IL8 as attractant; format: cell-based, human; conditions: IL8 100 ng/ml as attractant
# Protocol: Invasion assay. Assays were done in triplicate in transwell chambers with 8 μm pore polycarbonate filter inserts for 12-well plates (Corning, N.Y.). Filters were coated with 30 ul of ice-cold 1:6 basement membrane extract (Matrigel, BD-Bioscience) in DMEM/F12 incubated 1 hour at 37° C. Cells were added to the upper chamber in 200 ul of serum-free medium. For the invasion assay, 5000 cells were seeded on the Matrigel-coated filters and the lower chamber was filled with 600 ul of medium supplemented with 10% human serum (Cambrex) or with 600 ul of serum-free medium supplemented with IL8 (100 ng/mL). After 48 hours incubation, the cells on the underside of the filter were counted using light microscopy. Relative invasion was normalized to the unseparated corresponding cell lines under serum condition.
compound,measurement,setting,value
"CC(=O)O[C@@]12CO[C@@H]1C[C@H](O)[C@@]1(C)C(=O)[C@H](O)C3=C(C)[C@@H](OC(=O)[C@H](O)[C@@H](NC(=O)OC(C)(C)C)c4ccccc4)C[C@@](O)([C@@H](OC(=O)c4ccccc4)[C@H]21)C3(C)C [Docetaxel, (2R,3S)-N-carboxy-3-phenylisoserine, N-tert-butyl ester, 13-ester with 5b-20-epoxy-12a,4,7b,10b,13a-hexahydroxytax-11-en-9-one 4-acetate 2-benzoate, trihydrate]",increase of FAS-ligand mRNA level compared to non-treated cells,FAS-ligand mRNA; listed as docetaxel,induced both IL-8 and FAS-ligand mRNA
same,increase of FAS-ligand mRNA level compared to non-treated cells,FAS-ligand mRNA,induced both FAS-ligand (A) and IL-8 (B) mRNA
same,tumor size / tumor growth compared to the control,[1]; listed as docetaxel,significant inhibition of tumor growth; also recorded: statistically significant reduction of the tumor size
same,tumor size / tumor growth compared to the control,[1],statistically significant reduction of the tumor size
same,"ALDEFLUOR-positive cells (cancer stem cells) in treated tumors, decrease compared to the control",[2],unchanged or increased
same,Tumors/Injections,[3]; number of cells injected 100,8/9
same,Tumors/Injections,[3]; number of cells injected 250,2/3
same,Tumors/Injections,[3]; number of cells injected 500,3/4
same,Tumors/Injections,"[3]; number of cells injected 1,000",6/6
same,Tumors/Injections,"[3]; number of cells injected 2,500",2/2
same,Tumors/Injections,"[3]; number of cells injected 5,000",4/4
same,Tumors/Injections,"[3]; number of cells injected 10,000",2/2
same,secondary tumor formation / regrowth from serial dilutions of treated primary tumors,"[3]; secondary NOD/SCID mice, no further treatment, trihydrate",formed secondary tumors at all dilutions
same,percent of CD44+/CD24- cells in residual tumors,[4],unchanged or increased percent
same,nuclear FOXO3A in treated tumors,FOXO3A,detected
same,ALDH1-positive cells / ALDH1 expression in treated tumors,ALDH1,unchanged or increased
"IL8: human recombinant IL8 (GenWay Biotech), chemokine ligand of CXCR1",formation of primary and secondary mammospheres,[5],increased the formation of primary (B) and secondary mammospheres (C) in a dose-dependent manner
same,formation of primary and secondary mammospheres,[5]; listed as IL-8,increased the formation of primary and secondary mammospheres in a dose-dependent manner
same,formation of primary and secondary tumorspheres,[6],increased the formation of primary and secondary tumorspheres in a dose-dependent manner; also recorded: increased the formation of primary and secondary tumorospheres in a dose-dependent manner
same,ALDEFLUOR-positive population,[7],increased the ALDEFLUOR-positive population in a dose-dependent manner
same,invasive capacity of ALDEFLUOR-negative cells,[8],did not have any effect; also recorded: no effect
same,invasion of ALDEFLUOR-positive cells through Matrigel,[8]; compared to serum,increased invasion; also recorded: significant increase
